Experimental data from article PMC10741027, “Risk Assessment of Psychotropic Drugs on Mitochondrial Function Using In Vitro Assays” (Biomedicines, 2023).
Read-outs that look alike come from different tables or passages of the source.

Columns and labels:
[1] = literature values, plasma or serum of adult humans when possible; ref 68-88 (per drug, Table 2 Cmax Reference); cited from earlier work
HepG2 cells [2] = test: Glu/Gal assay: cellular ATP (CellTiter-Glo) after 24 h in glucose or galactose media; details: for Effect on cell viability / ATP in Glu and Gal media (in words): 24 h incubation, top concentration; for AC50 / minimal effective concentration: Homo sapiens, HepG2, 24 h
HepG2 cells [3] = test: Acute extracellular flux (AEF) assay in intact HepG2 cells (Seahorse XFe96); type: cell-based, human; details: Homo sapiens
CI-linked respiration = details: read-out: CI-linked respiration IC50, cited from earlier work
CII-linked respiration = details: read-out: CII-linked respiration IC50, cited from earlier work
respiratory CI = tested on: respiratory CI; parameters: method as in PMID 9309697; details: human brain cortex; read-out: CI inhibition IC50; cited from earlier work
[4] = tested on: rat liver mitochondria (CII-linked respiration); test: High-resolution respirometry, MMP and ROS in isolated rat liver mitochondria (Oroboros O2k); type: biochemical; details: for % MMP / % O2 consumption: basal succinate-driven respiration, normalized to control; for Mode of action on respiration in isolated RLM (in words): CII-linked respiration
Protocol: Mitochondria were isolated from adult Wistar Rat liver. […] The liver was homogenized with 10 passes in a loose-fitting homogenizer, followed by 10 passes in a tight-fitting homogenizer, and filtered through muslin. The tissue homogenate was then centrifuged at 1000× g for 10 min at 4 °C and the supernatants were further centrifuged at 10,000× g for 10 min. The centrifugation steps were repeated, preserving the pellet. […] Protein concentration was determined using the Bradford method with bovine serum albumin as the standard. The Oroboros® Oxygraph-2K (Oroboros Instruments, Innsbruck, Austria) was used to simultaneously analyze high-resolution respirometry and mitochondrial membrane potential (MMP). […] At the beginning of each experiment, the O2k chambers were filled with 2 mL of reaction buffer (200 mM sucrose, 25 mM KCl, 5 mM MgCl2, 4 mM KH2PO4, 5 mM MOPS, pH 7.4) and equilibrated with air at 37 °C. During the experiments, the incubation chambers were kept at constant temperature by Peltier control (±0.001 °C) and the medium was stirred using white PVDF-coated stirrers (750 rpm). […] This was followed by serial additions of the drugs to assess their dose-dependent effect on the MMP and mitochondrial respiration. Injection of RLM results in an uptake of safranin and a corresponding decline in the fluorescence signal.

[5] = tested on: rPFO permeabilized HepG2 cells; test: Mitochondrial respiratory complexes in rPFO permeabilized HepG2 cells (Seahorse XF); details: for AC50: Homo sapiens, HepG2, read-out: Pyruvate Respiration AC50
[6] = HepG2, minimum effective concentration crossing vehicle control threshold, read-out: MEC ATP Production
[7] = HepG2, minimum effective concentration crossing vehicle control threshold, read-out: MEC ECAR
[8] = HepG2, minimum effective concentration crossing vehicle control threshold, read-out: MEC OCR
[9] = HepG2, minimum effective concentration crossing vehicle control threshold, read-out: MEC Reserve Capacity
[10] = HepG2, concentration at which 50% maximum effect is observed, read-out: AC50 ATP Production
[11] = HepG2, concentration at which 50% maximum effect is observed, read-out: AC50 ECAR
[12] = HepG2, concentration at which 50% maximum effect is observed, read-out: AC50 OCR
[13] = HepG2, concentration at which 50% maximum effect is observed, read-out: AC50 Reserve Capacity
[14] = isolated mitochondria, partial inhibition
[15] = HepG2, minimum effective concentration crossing vehicle control threshold, read-out: MEC Proton Leak
[16] = HepG2, concentration at which 50% maximum effect is observed, read-out: AC50 Proton Leak
[17] = HepG2, read-out: AC50 ATP Production
[18] = HepG2, read-out: AC50 Proton Leak
[19] = HepG2, read-out: AC50 Reserve Capacity

SMILES	Cmax [1]	minimal effective concentration (HepG2 cells [3]; [6])	minimal effective concentration (HepG2 cells [3]; [8])	minimal effective concentration (HepG2 cells [3]; [9])	AC50 (HepG2 cells [3]; [10])	AC50 (HepG2 cells [3]; [11])	AC50 (HepG2 cells [3]; [12])	AC50 (HepG2 cells [3]; [13])	AC50 (HepG2 cells [2]; read-out: Gal AC50)	minimal effective concentration (HepG2 cells [2]; read-out: Gal MEC)	minimal effective concentration (HepG2 cells [3]; [15])	AC50 (HepG2 cells [3]; [16])	AC50 (HepG2 cells [2]; read-out: Glu AC50)	minimal effective concentration (HepG2 cells [2]; read-out: Glu MEC)	other results
CCN1CCCC1CNC(=O)c1cc(S(=O)(=O)CC)c(N)cc1OC (stereo not drawn) [Amisulpride]	2560 nM														Effect on cell viability / ATP in Glu and Gal media (in words) (HepG2 cells [2]): did not show any effect on ATP production in any of the media conditions
O=C1CCc2ccc(OCCCCN3CCN(c4cccc(Cl)c4Cl)CC3)cc2N1 [Aripiprazole]	700 nM	3.49 µM	2.06 µM	0.344 µM	> 10 µM	> 10 µM	> 10 µM	> 10 µM	9.17 µM	5.67 µM					minimal effective concentration (HepG2 cells [3]; [7]): 9.2 µM
NC(=O)N1c2ccccc2C=Cc2ccccc21 [Carbamazepine]	6300 nM	165 µM	13.1 µM	137 µM	363 µM	> 600 µM	> 600 µM	> 190 µM	> 600 µM	408 µM	97 µM	> 600 µM	> 600 µM		IC50 (CI-linked respiration; [14]): 353 µM; IC50 (CII-linked respiration; [14]): 182 µM
CN(C)CCCN1c2ccccc2Sc2ccc(Cl)cc21 [Chlorpromazine]	900 nM	94.2 µM	73.4 µM	78.4 µM	> 100 µM	> 100 µM	> 100 µM	> 100 µM	16.9 µM	10.5 µM	31 µM	> 100 µM	15.9 µM	10.7 µM	IC50 (respiratory CI): 400 µM; % MMP ([4]; 20 μM): 88%; % O2 consumption ([4]; 20 μM): 111%; % MMP ([4]; 50 μM): 79%; % O2 consumption ([4]; 50 μM): 125%; % MMP ([4]; 100 μM): 72%; % O2 consumption ([4]; 100 μM): 131%; Mode of action on respiration in isolated RLM (in words) [4]: uncoupler of OXPHOS; Mode of action on respiration in isolated RLM (in words) ([4]; listed as chlorpromazine): uncoupler in basal respiration and an ETC inhibitor under uncoupled respiration; IC50 ([4]; CII-linked, succinate + rotenone, stimulated with 0.25 µM CCCP, 50–400 µM, read-out: IC50 uncoupled respiration): 135 µM; ROS production ([4]; uncoupled respiration, increasing concentrations): reduction in the production of ROS; IC50 (CI-linked respiration; pig brain mitochondria): 116 µM; Most sensitive mechanism / response in permeabilized HepG2 assay (OCR) ([5]; in words): did not show a significant response; minimal effective concentration (HepG2 cells [3]; [7]): 15.6 µM
CN(C)CCCC1(c2ccc(F)cc2)OCc2cc(C#N)ccc21 (stereo not drawn) [Citalopram]	100 nM				> 10 µM	> 10 µM	> 10 µM	> 10 µM	> 10 µM	7.11 µM	7.17 µM	> 10 µM	> 10 µM	4.43 µM	reduction in cell viability (HepG2 cells [2]; 10 µM, both media conditions, 24 h): around 40%
O=C(CCCN1CCC(O)(c2ccc(Cl)cc2)CC1)c1ccc(F)cc1 [Haloperidol]	20 nM								78.6 µM	26 µM			57.5 µM	26.2 µM	% MMP ([4]; 20 μM): 88%; % O2 consumption ([4]; 20 μM): 85%; % MMP ([4]; 50 μM): 69%; % O2 consumption ([4]; 50 μM): 77%
Nc1nnc(-c2cccc(Cl)c2Cl)c(N)n1 [Lamotrigine]	4000 nM	14 µM			75.7 µM	> 100 µM	> 100 µM	> 100 µM	> 100 µM			> 100 µM	> 100 µM		IC50 (CI-linked respiration; [14]): 332 µM; IC50 (CII-linked respiration; [14]): 381 µM; Effect on cell viability / ATP in Glu and Gal media (in words) (HepG2 cells [2]): no cytotoxicity
Cc1cc2c(s1)Nc1ccccc1N=C2N1CCN(C)CC1 [Olanzapine]	20 nM														% MMP ([4]; 20 μM): 92%; % O2 consumption ([4]; 20 μM): 90%; decrease in the MMP ([4]; 50 µM): 10%; % MMP ([4]; 50 μM): 90%; % O2 consumption ([4]; 50 μM): 92%; % MMP ([4]; 50 μM, listed as olanzapine): mild dissipation of the membrane potential
CCC1(c2ccccc2)C(=O)NC(=O)NC1=O [Phenobarbital]									> 100 µM				> 100 µM		AC50 (HepG2 cells [3]; [17]): > 100 µM; AC50 (HepG2 cells [3]; HepG2, read-out: AC50 ECAR): > 100 µM; AC50 (HepG2 cells [3]; HepG2, read-out: AC50 OCR): > 100 µM; AC50 (HepG2 cells [3]; [18]): > 100 µM; AC50 (HepG2 cells [3]; [19]): > 100 µM
O=C1NC(=O)C(c2ccccc2)(c2ccccc2)N1 [Phenytoin]	30000 nM	197 µM	90.9 µM	1.45 µM	> 200 µM	> 200 µM	> 200 µM	26.6 µM	> 200 µM			> 200 µM	> 200 µM		minimal effective concentration (HepG2 cells [3]; [7]): 138 µM
CCC1(c2ccccc2)C(=O)NCNC1=O [Primidone]					> 100 µM	> 100 µM	> 100 µM	> 100 µM	> 100 µM			> 100 µM	> 100 µM		
OCCOCCN1CCN(C2=Nc3ccccc3Sc3ccccc32)CC1 [Quetiapine]	1880 nM	92.3 µM	19 µM	26.1 µM	> 150 µM		> 150 µM	124 µM	79 µM	57.7 µM			76.7 µM	49.3 µM	AC50 [5]: > 150 µM
COC(=O)[C@H]1[C@H]2C[C@@H]3c4[nH]c5cc(OC)ccc5c4CCN3C[C@H]2C[C@@H](OC(=O)c2cc(OC)c(OC)c(OC)c2)[C@@H]1OC [Reserpine]	0.4 nM	59.4 µM	60.3 µM		77.3 µM		> 100 µM		79 µM	19 µM	30 µM	36.8 µM	48.9 µM	6.68 µM	
C=C(C)[C@H]1Cc2c(ccc3c2O[C@@H]2COc4cc(OC)c(OC)cc4[C@@H]2C3=O)O1 [Rotenone]									0.00605 µM	0.002 µM			27.8 µM	0.29 µM	AC50 [5]: 0.0071 µM; AC50 (HepG2 cells [3]; [17]): 0.0459 µM; AC50 (HepG2 cells [3]; HepG2, read-out: AC50 ECAR): > 1 µM; AC50 (HepG2 cells [3]; HepG2, read-out: AC50 OCR): 0.0433 µM; AC50 (HepG2 cells [3]; [18]): 0.213 µM; AC50 (HepG2 cells [3]; [19]): 0.0106 µM; minimal effective concentration (HepG2 cells [3]; HepG2, read-out: MEC ATP Production): 0.0159 µM; minimal effective concentration (HepG2 cells [3]; HepG2, read-out: MEC ECAR): 0.0274 µM; minimal effective concentration (HepG2 cells [3]; HepG2, read-out: MEC OCR): 0.0053 µM; minimal effective concentration (HepG2 cells [3]; HepG2, read-out: MEC Proton Leak): 0.012 µM; minimal effective concentration (HepG2 cells [3]; HepG2, read-out: MEC Reserve Capacity): < 0.003 µM
C=CC(N)CCC(=O)O (stereo not drawn) [Vigabatrin]	4000 nM				> 1000 µM	> 1000 µM	> 1000 µM	> 1000 µM	> 1000 µM			> 1000 µM	> 1000 µM		
O=C1Cc2cc(CCN3CCN(c4nsc5ccccc45)CC3)c(Cl)cc2N1 [Ziprasidone]	110 nM	0.95 µM			> 12.7 µM				> 40 µM	28.3 µM	0.12 µM	2.19 µM			IC50 (CI-linked respiration; pig brain mitochondria): 188 µM; IC50 (CII-linked respiration; pig brain mitochondria): 86 µM
